Some test systems named below: DU-145 prostate; MDA-MB-435; M19-MEL melanoma; DMS 114 small cell lung; DLD-1 colon; LXFL 529 NSCLC; MDA-N.
Holding throughout (assay): NCI tumour cell line growth inhibition, 48 h

Each structure is given as a SMILES string. Several values for one entry are separate records, joined by “and”; a condition that tells them apart may be missing. Identical values can stand only once.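 Growth conditions: 96-well plates. Treatment: test compound, 48 hours, 5 concentrations. Analysis: linear interpolation between bracketing concentrations; unreached endpoints set to highest concentration. GI50 = concentration required for 50% inhibition of growth. The concentration for full growth arrest is given as TGI.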 A value given as a limit tells only on which side of the number the result lay.

Turning to `O=C1/C(=C/C(Cl)=C/c2ccccc2)SC(=S)N1CCc1ccc(O)cc1`, in the experiment with DU-145 prostate, the GI50 is 1.6 µM and the TGI was determined as 3.28 µM. In the experiment on MDA-MB-435, the GI50 was 1.61 µM and the TGI was 4.27 µM.
For the molecule `CC(=O)Nc1ccc(/C=C/C(=O)c2sc(C(N)=S)nc2C)cc1`, the TGI with M19-MEL melanoma, in the experiment on DMS 114 small cell lung and with DLD-1 colon was greater than 100 µM throughout.
As for `COc1ccc(F)cc1C(=O)c1cnc(NC2CCN(S(C)(=O)=O)CC2)nc1N`, the results for the GI50 in the experiment on DU-145 prostate and with MDA-MB-435 were 5.52 µM and 2.39 µM, respectively. Further, the TGI is 24.5 µM in the experiment with DU-145 prostate and greater than 25 µM in the experiment on MDA-MB-435.
Regarding `O=C(Cn1ccnc1[N+](=O)[O-])NCC(F)(F)C(F)(F)F`, in the experiment with DU-145 prostate, the GI50 is greater than 100 µM and the TGI was greater than 100 µM. For the same molecule, in the experiment on MDA-MB-435, the GI50 was greater than 100 µM and the TGI was greater than 100 µM.
For `Cc1c(Cl)ccc2c1NC(=O)C2(O)C1Cc2ccccc2C1=O` (stereo not given), the TGI with M19-MEL melanoma, with LXFL 529 NSCLC, in the experiment on DMS 114 small cell lung and with DLD-1 colon was greater than 100 µM each time.
For `O=C(Nc1ccc(Br)c(Cl)c1)c1cc(F)ccc1O`, in the experiment on DU-145 prostate, the GI50 was 1.39 µM and the TGI was greater than 50 µM. In the experiment with MDA-MB-435, the GI50 was 1.01 µM and the TGI was greater than 15.8 µM.
With `CC[C@H](C)C(=O)O[C@H]1CCC=C2C=C[C@H](C)C(CCC3C[C@@H](O)CC(=O)O3)[C@H]21` (stereo not given in full), the GI50 in the experiment on DU-145 prostate was 74.8 µM; in the experiment with MDA-MB-435, 39.3 µM. The TGI in the experiment on DU-145 prostate and with MDA-MB-435 was greater than 100 µM throughout.
Regarding `COc1ccc(Nc2ccnc(NCCCNc3ccnc4cc(Cl)ccc34)n2)cc1`, in the experiment with DU-145 prostate, the GI50 is 2.6 µM and the TGI came out at 10.7 µM. Moreover, in the experiment with MDA-MB-435, the GI50 is 0.243 µM and the TGI is 0.705 µM.
As to `O=C(C=Nc1ccccc1C(=O)[O-])c1cccs1.O=C(C=Nc1ccccc1C(=O)[O-])c1cccs1.[Cu+2]`, in the experiment with M19-MEL melanoma, the GI50 was 39.7 µM. The results for the TGI in the experiment on M19-MEL melanoma and with DLD-1 colon were greater than 100 µM and greater than 10 µM, respectively.
For `Clc1ccc(CO/N=C(\Cn2ccnc2)c2ccc(Cl)cc2Cl)c(Cl)c1`, in the experiment on DU-145 prostate, the GI50 was 1.96 µM and the TGI amounted to 3.66 µM. Also, in the experiment with MDA-MB-435, the GI50 was 1.66 µM and the TGI was 3.19 µM.
For the molecule `C=C[C@]1(C)C=C2C(=O)[C@@]3(O)OC(=O)[C@@]4(CCCC(C)(C)[C@H]34)[C@@]2(O)CC1`, in the experiment with DU-145 prostate, the GI50 is 1.67 µM and the TGI turned out to be 3.69 µM. For the same molecule, in the experiment on MDA-MB-435, the GI50 was 1.76 µM and the TGI is 4.42 µM.
Take `COc1cc(C(=O)n2nc(N3CCN(C)CC3)c3cc(N)ccc32)cc(OC)c1OC`: the GI50 with DU-145 prostate is 3.99 µM; in the experiment with MDA-MB-435, 1.91 µM. Further, the TGI is greater than 100 µM in the experiment with DU-145 prostate and 5.4 µM in the experiment on MDA-MB-435.
For the molecule `ON(CCc1ccccn1)Cc1ccccc1`, the TGI in the experiment with DU-145 prostate, in the experiment on MDA-MB-435 and in the experiment with MDA-N was greater than 100 µM each time.
On to `Cc1cc(C)nc(SC2=C(Nc3cccc(Cl)c3)C(=O)N(Cc3ccccc3)C2=O)n1`, for which, in the experiment on DU-145 prostate, the GI50 is greater than 170 µM and the TGI is greater than 170 µM. In the experiment with MDA-MB-435, the GI50 is greater than 170 µM and the TGI was greater than 170 µM.
Regarding `CC1(C)C2CCC13C(=O)C1OC3(C2)C2C(=O)c3c(O)ccc(O)c3C(=O)C12` (stereo not given), the GI50 was 32.2 µM in the experiment with DU-145 prostate and 34.9 µM in the experiment on MDA-MB-435. Also, the TGI in the experiment with DU-145 prostate was 96.5 µM; in the experiment with MDA-MB-435 it was greater than 74.5 µM.
`[N-]=[N+]=CC(=O)OCC(N)C(=O)O` (stereo not given): in the experiment with DU-145 prostate, the GI50 is 0.952 µM and the TGI was greater than 100 µM. In the experiment with MDA-MB-435, the GI50 is 0.457 µM and the TGI is greater than 100 µM.
Consider `CCNc1nc(N2CC(=O)Nc3cc(OC)ccc32)c2ccccc2n1`, for which the GI50 with DU-145 prostate is 0.000435 µM; in the experiment with MDA-MB-435, 0.000193 µM. Moreover, the TGI stood at 12.1 µM in the experiment with DU-145 prostate and 0.000442 µM in the experiment with MDA-MB-435.
Regarding `Cc1ccc(S(=O)(=O)N/N=C(\C(=O)Nc2cccc([N+](=O)[O-])c2)c2nc3ccc([N+](=O)[O-])cc3[nH]c2=O)cc1`, the TGI with M19-MEL melanoma is greater than 100 µM; with LXFL 529 NSCLC, greater than 100 µM; in the experiment with DMS 114 small cell lung it was 99.1 µM; in the experiment on DLD-1 colon, greater than 100 µM.
For `O=C(CC(=O)C(F)(F)F)c1csc2ccccc12`, the TGI with M19-MEL melanoma, in the experiment with LXFL 529 NSCLC and in the experiment on DMS 114 small cell lung was greater than 100 µM in each case.
For `Cc1ccc(S(=O)(=O)n2cc(C(=O)C(=O)Nc3ccncc3)c3ccccc32)cc1`, in the experiment with DU-145 prostate, the GI50 is 3.34 µM and the TGI was greater than 100 µM.
Take `CO[C@H](C(=O)N[C@@H](CCCCNC(=O)OCc1ccccc1)C(=O)OC(C)(C)C)[C@@H]1Cc2cc3cc(OC4CC(OC5CC(O)C(O)C(C)O5)C(O)C(C)O4)c(C)c(O)c3c(O)c2C(=O)[C@H]1OC1CC(OC2CC(OC3CC(C)(O)C(O)C(C)O3)C(O)C(C)O2)C(O)C(C)O1` (stereo not given in full): the values for the GI50 with DU-145 prostate and in the experiment with MDA-MB-435 were 0.842 µM and 0.805 µM, respectively. Besides, the values for the TGI with DU-145 prostate and in the experiment with MDA-MB-435 were greater than 10 µM and 2.28 µM, respectively.
The corresponding values for `Cc1ccc2sc3c(NCCCNCCO)nc4ccccc4c3c(=O)c2c1` are 1.71 µM, 1.74 µM, 3.15 µM and 3.27 µM.
For `COC(=O)[C@@H](C)C[C@H](Cc1ccccc1)NC(=O)c1csc([C@@H](C[C@H](C(C)C)N(C)C(=O)[C@@H](NC(=O)[C@H]2CCCCN2C)C(C)C)OC(C)=O)n1`, in the experiment on MDA-MB-435, the GI50 was less than 0.0001 µM; the TGI was 0.000135 µM and < 0.0025 µM.
With `COC(=O)Nc1nc2ccc(Oc3ccc(NC(=O)Nc4cccc(Cl)c4)cc3)cc2[nH]1`, the GI50 with DU-145 prostate is 1.58 µM; in the experiment on MDA-MB-435 it was 0.0755 µM. Besides, the TGI stood at 8.44 µM with DU-145 prostate and 0.315 µM with MDA-MB-435.
Turning to `C[C@]12CCC(=O)C=C1CC[C@@H]1[C@@H]2CC[C@]2(C)C(=O)/C(=C/c3cccc(OCCN4CCOCC4)c3)C[C@@H]12`, the GI50 in the experiment on DU-145 prostate is 17.9 µM; in the experiment on MDA-MB-435, 4.92 µM. Also, the TGI in the experiment with DU-145 prostate is 51.5 µM; in the experiment on MDA-MB-435, 21.8 µM.
Regarding `CC1C(=O)N(C)C2(CO)C(=O)O[C@H](C)C12O` (stereo not given in full), the TGI in the experiment with M19-MEL melanoma, in the experiment with DMS 114 small cell lung and in the experiment on DLD-1 colon was greater than 100 µM throughout.

The values above are taken from PubChem BioAssay (NCI).
